# Test results from patent publication US12404332B2, “Methods for diagnosing and treating cancers” (Research Development Foundation, priority 2020, dated 2025).
# Residues, ends and D or L forms follow the SMILES beside them. *: point of attachment. Cbz = O=C(OCc1ccccc1)*
# How the values were obtained:
# [1] = tested on: RT4 human bladder cancer cells; experiment: In vitro viability (MTT) of CTRL versus PD-L1^KO RT4 cells; assay type: cell-based; settings: monotherapy
# Experimental: (§1) Cells (1×10^3) were plated in 96 well plastic culture plates in respective medium and treated for 5 days with DDRi or 3 days with gemcitabine at indicated concentrations. Drug concentrations were carefully optimized in preliminary work not shown. Cell viability was by MTT (3-(4,5-dimethylthiazol-2-yl)-2,5-diphenyl tetrazolium bromide) at 5 mg/ml. Absorbance was measured at 540 nm. Results are presented as a mean+/−SEM of ≥6 replicates. Total cells and viability were confirmed using a Vi-Cell-XR (Beckman Coulter).
# [2] = tested on: ID8agg murine ovarian cancer cells; experiment: In vitro viability (MTT) of CTRL versus PD-L1^KO ID8agg cells; assay type: cell-based, mouse; settings: monotherapy
# Experimental: as §1
# [3] = tested on: 4T1 murine breast cancer cells; experiment: In vitro viability (MTT) of CTRL versus PD-L1^lo 4T1 cells; assay type: cell-based, mouse
# Experimental: as §1
# [4] = tested on: RT4 cells; experiment: Chk1 inhibitor synthetic lethality with beta-lactam antibiotics, RT4 cells; assay type: cell-based, human; settings: for synthetic lethality with Chk1i: RT4 cells, Chk1i rabusertib
# Experimental: Additional experiments were performed, as follows. MB49 were plated at 2,000 cells/well in 96 well flat bottom plates and treated with PD-L1 depleting drugs, olaparib (2.5 μM), and combination for 96 hours. RT4 were plated at 2,000 cells/well in 96 well flat bottom plates and treated with cefepime, rabusertib (1 μM), praxasertib, or combination for 96 hours. ID8agg, 4T1, and B16 cells were plated on fibronectin at 500 cells/well and treated with cefepime, rabusertib, or combination for 96 hours. Normalized treatment combination to DDR inhibitor alone, and PD-L1 depleting drug to vehicle alone (DMSO) were evaluated.
# [5] = tested on: PD-L1 in OVCAR5 cells; experiment: PD-L1 mRNA, protein and ubiquitination in OVCAR5 cells; assay type: cell-based, human; settings: OVCAR5 cells
# Experimental: FIGS. 39A-C: CAMB reduces PD-L1 through ubiquitination. FIG. 39A, RT-qPCR for PD-L1 mRNA in OVCAR5 and ID8agg cells treated with (+) or without (−) chlorambucil for 48 hours. (n=4). FIG. 39B, Western blot for PD-L1 protein in OVCAR5 cells with (+) or without (−) MG132 for 6 or 20 hours. (upper panel). PD-L1 expression in OVCAR5 cells treated with chlorambucil 48 hours and/or MG132 for 6 hours (lower panel). FIG. 39C, Ubiquitinated PD-L1 was immunoprecipitated (IP) and subjected to Western blot analysis with anti-ubiquitin (Ub) antibody. Cells were treated with chlorambucil for indicated times prior to ubiquitination analysis.
# (§2) Western blotting and immunoprecipitation: To prepare whole cell lysates, cells were harvested and lysed in RIPA (radioimmunoprecipitation assay) buffer plus 1 mM phenylmethylsulphonyl fluoride and Halt protease/phosphatase inhibitor cocktail (Thermo Scientific) at 4° C. Protein concentrations were measured by BCA Protein Assay Kit (Thermo Scientific). Protein was run on precast 4-15% sodium dodecyl sulfate polyacrylamide gels (Bio-Rad), transferred to polyvinylidene fluoride membranes (GE Water and Process Technologies), and then blocked in 5% non-fat milk for 1 hour at room temperature. The membranes were then incubated with 1:1000 diluted primary antibodies against indicated proteins (Cell Signaling). Specific antibody binding was detected by chemiluminescence using Western Lightening Plus regent (Perkin Elmer). Cells for (co) immunoprecipitation experiments were seeded in 15-cm dishes and cultured as described, using 6 million cells per immunoprecipitation reaction. For protein ubiquitination, cells were lysed in denaturing buffer (50 mM Tris-HCl, 0.5 mM EDTA and 1% SDS) followed by heating at 95° C. for 10 minutes and then quenched with 9 volumes of quenching buffer (0.5% Triton X-100, 20 mM Tris-HCl (pH 8.0), 137 mM NaCl, 10% glycerol, 2 mM EDTA). Protease inhibitor cocktail (Roche) was added fresh to all buffers. Cell lysates were incubated on a rotator for 30 minutes at 4° C., and then centrifuged at 20,000 g for 15 minutes at 4° C. Supernatants were subsequently incubated with anti-PD-L1 antibody overnight and processed using Dynabeads Protein G for Immunoprecipitation (Thermo Fisher Scientific). The final eluate was processed and Western blotting was performed.
# Quantitative Real-Time Reverse Transcriptase Polymerase Chain Reaction: Total RNA was isolated from homogenized whole lung tissue with Trizol reagent (Invitrogen) according to manufacturer instructions. […] Quantitative PCR (qPCR) was conducted using the Bio-Rad Real-Time PCR System (Applied Biosystems), amplified with transcript-specific primers with SYBR Green (Thermo Scientific), according to manufacturer instructions. […]
# [6] = tested on: PD-L1; experiment: Tumor cell PD-L1 depletion by drugs (flow cytometry, immunoblot); assay type: cell-based, human and mouse; settings: for expression of PD-L1 in cancer cells: summary statement
# Experimental: High throughput Screening: B16 PD-L1 RFP cells were treated with 2.5 and 10 μM compounds from the Prestwick and LOPAC Libraries for 48 hours using the Agilent Bravo liquid pipetting platform. Then, cells were washed with PBS, and fixed with 4% paraformaldehyde (Electron Microscopy Sciences, Hatsfield, PA, Cat 15714S) and labeled with 2 μg/ml DAPI, (Molecular Probes, Cat D1306) and 1 μg/ml Cell Mask-Blue (Invitrogen, Cat. H32720). Plates were then imaged using the Operetta High Content Imaging System, Perkin Elmer, Waltham (DAPI and Cell Mask Blue, Ex 360-400, Em 410-480), and the RFP channels (Ex 520-550, Em 560-630) channels. Agents effecting ≥2-fold PD-L1 reduction in the RFP reporter without loss of ≥20% cell viability were candidate PD-L1 depletion agents.
# Flow cytometry: Mice were sacrificed by cervical dislocation after induction of deep isoflurane anesthesia. ID8agg tumors were collected and cells were stained as described (Derup et al., 2020) using LSR II hardware and analyzed by FACS Diva (BD Bioscience) or Flow Jo software (Flow Jo, LLC). Anti-mouse (clone 10F.9G2) and human (clone 29E.2A3) PD-L1 [both PE/Cy7, Cat #124314 (mouse) 329718 (human)] were matched with isotype control. Apoptosis assessment used Annexin V and propidium iodide (Thermo Scientific) per manufacturer instruction.
# as §2
# [7] = tested on: mTORC1; experiment: Western blots for mTORC1 pathway and LC3 autophagy; assay type: cell-based
# Experimental: FIGS. 40A-C: CAMB suppresses mTORC1 signals and reduces TIC numbers. FIG. 40A, Western blots for proteins in the mTORC1 pathway. Cells were treated with chlorambucil as indicated concentration for 48 hours. FIG. 40B, Western blot for LC3I/II to assess autophagy in cell lysates treated±chlorambucil at indicated concentrations. FIG. 40C, Percent of ALDH^hi TIC by flow cytometry of ES2 cells cultured±chlorambucil. Percent CD44^+CD24^+ ID8agg TIC and CD44^+CD133^+CD24^+ B16 TIC detected by flow cytometry.
# as §2
# [8] = tested on: PD-L1, Chk2, gH2AX in RT4 cells; experiment: Cefepime depletion of PD-L1 and Chk2, DNA damage (gH2AX); assay type: cell-based, human
# Experimental: Experiments were performed to see if beta-lactam antibiotics may deplete PD-L1 in cancer cells. RT4 cells were incubated at 80 μM cefepime.
# Next experiments were performed to see if beta-lacatam antibiotics can deplete Chk2 in vitro. RT4 cells were treated with 1 μM rabusertib (Chk1i), 75 μM cefepime (D7), or combination. Protein lysates were collected at 24, 48, 72, and 96 hours.
# [9] = tested on: UV induced TpN^61R derived CD274^+/+ or CD274^−/− melanoma cells; experiment: Viability of de novo Nras CD274^+/+ versus CD274^−/− melanoma cells; assay type: cell-based, mouse; settings: in vitro
# Description: FIGS. 26A-H: De novo PD-L1^KO tumors phenocopy important aspects of genetic PD-L1 depletion in established tumors. FIG. 26A, Melanoma-free survival of melanocyte specific CD274^fl,fl TpN^61R (KO) versus littermate (WT) autochthonous mice under conditions shown. FIG. 26B, Validation of PD-L1 expression by immunoblot (IB) of melanoma cells derived from UV induced (4.5 Kj/m^2) WT (CD274^+/+) or melanocyte specific CD274^KO (CD274^−/−) mice±in vitro interferon (IFN)-γ treatment. Viability curves of CD274^+/+ versus CD274^−/− cells treated with the selective Chk1 inhibitors FIG. 26C, prexasertib […] or FIG. 26D, rabusertib (LY2603618) in vitro at indicated concentrations. FIG. 26E, IB analysis of PD-L1, ATM, Chk2, and γH2AX of vehicle or rabusertib-treated CD274^+/+ and CD274^−/− cell lines. FIGS. 26F-H, Tumor growth curves in WT C57BL/6J mice (n=10 tumors/group) challenged with UV induced TpN^61R derived CD274^+/+ or CD274^−/− melanoma cells and treated with rabusertib (Chk1i, LY2603618) on the indicated treatment schedule. P values, two-way ANOVA.
# [10] = tested on: CTRL and PD-L1^KO RT4 cells; experiment: Viability of RT4 cells treated with Chk1 inhibitor plus atezolizumab; assay type: cell-based, human; settings: in vitro, absence of immune cells
# Experimental: FIGS. 27A-H: Anti-PD-L1 antibodies mimic genetic PD-L1 depletion to impair tumor cell-intrinsic DDR signals and promote sensitivity to Chk1 inhibition in vitro and in vivo. Cell viability of FIG. 27A, CTRL and FIG. 27B, PD-L1^KORT4 cells treated with LY2603618 (Chk1 inhibitor) as shown plus IgG1 isotype or atezolizumab (atezo, 3 μg/ml) for 72 hours in vitro. Mean+SEM, n=6 replicates, ***, P<0.001, unpaired t-test. FIG. 27C, Immunoblot (IB) analysis of ATM, Chk2, γH2AX and vinculin (VINC) of RT4 cells treated in vitro with isotype, atezolizumab, Chk1i, or their combination. FIG. 27D, Viability of 4T1 cells as in panel A substituting anti-murine PD-L1 and isotype controls. FIG. 27E, IB of 4T1 as in panel FIG. 27C. FIG. 27F, Tumor curves of NSG mice (n=10 tumors/group) challenged with 4T1 tumor cells and treated with Chk1i±αPD-L1. FIG. 27G, Tumor curves and FIG. 27H, tumor weights in WT […] mice challenged and treated as in panel FIG. 27F. P values, two-way ANOVA.
compound,measurement,setting,value
CN(C)CCCOc1ccc(-c2ccc3ncc4c(c3c2)n(C2CCOCC2)c(=O)n4C)cn1 [AZD0156],sensitivity of PD-L1^KO versus control RT4 cells to the agent,[1],Minimal effects
same,sensitivity of PD-L1^KO versus control ID8agg cells to the agent,[2],Minimal effects
C[C@@H]1COCCN1c1cc(C2([S@](C)(=N)=O)CC2)nc(-c2cc[nH]c3nccc2-3)n1 [AZD6738],sensitivity of PD-L1^lo versus control 4T1 cells to the agent,[3],enhanced sensitivity
same,sensitivity of PD-L1^KO versus control ID8agg cells to the agent,[2]; listed as ATRi,enhanced sensitivity
CO/N=C(\C(=O)N[C@@H]1C(=O)N2C(C(=O)O)=C(CSc3nc(=O)c(=O)[nH]n3C)CS[C@H]12)c1csc(N)n1 [Ceftriaxone],synthetic lethality with Chk1i,[4],not as effective
CC(C)C[C@@H](C=O)NC(=O)[C@H](CC(C)C)NC(=O)[C@H](CC(C)C)NC(=O)OCc1ccccc1 [MG132] (Cbz-Leu-Leu-Leu-aldehyde),effect on CAMB-mediated PD-L1 reduction,[5],abolished CAMB-mediated PD-L1 reduction
same,PD-L1 expression,[5]; by 6 hours after treatment,increased PD-L1 expression
"Nc1nc2c(ncn2CCOCP(=O)(O)O)c(=O)[nH]1 [PMEG, 9-(2-phosphonylmethoxyethyl) guanine]",effect on cell viability,"[6]; over 2-3 days, human and mouse tumor lines",little effect on cell viability
same,expression of PD-L1 in cancer cells,[6],decreased expression of PD-L1
same,autophagy,[7],promote autophagy
same,mTORC1 signals,[7],suppress mTORC1 signals
CC1(C)S[C@@H]2[C@H](NC(=O)Cc3ccccc3)C(=O)N2[C@H]1C(=O)O [Penicillin G],synthetic lethality with Chk1i,[4],not induce synthetic lethality
Cc1nnc(SCC2=C(C(=O)O)N3C(=O)[C@@H](NC(=O)Cn4cnnn4)[C@H]3SC2)s1 [cefazolin],synthetic lethality with Chk1i,[4],not as effective
CO/N=C(\C(=O)N[C@@H]1C(=O)N2C(C(=O)[O-])=C(C[N+]3(C)CCCC3)CS[C@H]12)c1csc(N)n1 [cefepime],effect on rabusertib efficacy,"[4]; FIG. 46B, cells not given",improves rabusertib efficacy
same,synthetic lethality with Chk1i,[4],elicited Chk1 inhibitor synthetic lethality in a PD-L1-dependent manner
same,expression of PD-L1 in cancer cells,[6],decreased expression of PD-L1
same,Chk2,"[8]; FIGS. 44A-B, cells not given",depleted
same,"DNA damage, as measured via gH2AX","[8]; FIGS. 44A-B, cells not given",increased DNA damage
same,PD-L1,"[8]; FIGS. 44A-B, cells not given",depleted
same,Chk2 in vitro,"[8]; RT4 cells, 75 μM, 24-96 hours",deplete Chk2
same,PD-L1 expression in vitro,"[8]; RT4 cells, 80 μM",deplete PD-L1 expression
C[C@@H](O)[C@H]1C(=O)N2C(C(=O)O)=C(S[C@@H]3CN[C@H](C(=O)N(C)C)C3)[C@H](C)[C@H]12 [meropenem],synthetic lethality with Chk1i,[4],not induce synthetic lethality
COc1cccc(OCCCN)c1-c1cc(Nc2cnc(C#N)cn2)n[nH]1 [prexasertib],synthetic lethality in induced PD-L1^KO tumors,[9],exhibited synthetic lethality
atezolizumab,"viability of RT4 cells, single agent",[10],slightly reduced viability
